The subject of assay [1] is PC12 cells. Description: NGF-mimic activity: neurite outgrowth in PC12 cells. Format: cell-based. The conditions noted are these: 48 h. The protocol: The neurogenic activity of samples was evaluated according to the methods described in our previous study. Briefly, approximately 5 × 10^4 cells were seeded in each well of a 24-well microplate and were cultured under a humidified atmosphere with 5% CO2 at 37 °C for 24 h. Then, the medium in each well was replaced with 1 mL of serum-free DMEM containing 40 ng/mL NGF as a positive control, 0.5% DMSO as a negative control, and the test sample after 24 h, respectively. About 100–200 cells of each well were counted from a randomly selected area and repeated thrice after 48 h. A cell-bearing neurite outgrowth longer than the diameter of the cell body was identified as a positive cell. The activity was presented as the percentage of positive cells in the selected area.
In the inhibitor experiment of NGF-mimic activity, approximately 5 × 10^4 PC12 cells were seeded into each well of a 24-well plate and incubated for 24 h. After that, the medium in each well was replaced with 500 μL of serum-free DMEM or the serum-free DMEM containing VER155008, the inhibitor of Hsc70 protein, incubated in a CO2 incubator for 30 min. Subsequently, 500 μL of serum-free DMEM containing different samples was added and cultured, respectively. The PC12 cells with neurite outgrowth were recorded after 48 h. For the Western blot analysis, the experiment included five groups, namely the control (C) group, the NGF (40 ng/mL) group, the TBG096 (1 µM) group, the VER155008 (3 µM) group, and the VER155008 (3 µM) + TBG096 (1 µM) group. Afterwards, approximately 2 × 10^6 cells per dish were seeded into ten 6 cm Petri dishes with 5 mL of DMEM medium and incubated for 24 h. After giving different treatments with samples, the cells continued to culture for 4 h. Protein extraction was conducted to prepare for the subsequent Western blot analysis.

In assay [2] the test system is HFD-induced AD mice. Description: Behavioral tests (Y-maze, NOR, MWM) in HFD-induced AD mice. Format: in vivo. From the text: (§1) In experiments with the HFD-induced AD mouse model, a total of 60 Institute of Cancer Research (ICR) male mice aged 4 weeks from Zhejiang Academy of Medical Sciences (Hangzhou, China) were used for animal experiments (permit number: ZJU20230121). The animals were provided free access to a chow diet and water. […] The HFD and normal diet were alternated every two days to maintain freshness. Weekly measurements were taken for water intake, food intake, and body weight. In the eighteenth week, the mice underwent Y-maze and NOR tests. The Morris water maze test was conducted during the nineteenth week. After confirming the successful establishment of the AD model characterized by cognitive impairment, oral administration of treatments commenced. […] Each group had 10 mice.
The Y-maze test is used to evaluate working memory, and the process was referenced in another report. In brief, the Y-maze consists of three black plastic arms (A, B, and C) with the same length (30 cm), width (10 cm), height (15 cm), and 120° relative to adjacent arms. Each mouse is placed facing the wall of arm A and allowed to explore the maze freely for 5 min. The behavior of mice is recorded with a video recorder, and the data are stored in ANY-MAZE software version 6.35 (Stoelting, Chicago, IL, USA). The total number of entries made by the mice into each arm—considered as either whole or half-body entries—is recorded. An alternation is defined as a mouse moving through all three arms without returning to the initial arm on the third visit. Alternation: number of alternations/(number of arm entries − 2) × 100%.
The NOR test is utilized to assess the working memory capabilities of mice. The NOR apparatus consists of an open, black plastic box, two identical objects, and one novel object. The activity of the mice within the open field is captured and recorded using a video recorder, with data subsequently stored in ANY-MAZE software. The test is conducted over a span of two days, incorporating habituation, training, and testing stages. During the habituation phase, the mice are placed in the box devoid of any objects, allowing them to explore freely for a duration of five min. Following a 24 h interval, the NOR test is administered, which consists of both the training and testing phases. In the training phase, each mouse is positioned in the central area of the box, where two identical objects are placed equidistant from the mouse. Each training session lasts for five minutes. After a one-hour break, one of the identical objects is replaced with a new, distinct object, and the exploration duration for each mouse is recorded. Exploration is defined by the time a mouse spends touching or sniffing an object. The exploration times during both the training and testing phases are documented via video recording, and the data are organized within ANY-MAZE software. The object recognition index was defined as follows: (time spent on the new object)/(time spent on the old object + time spent on the new object) × 100%. The data are calculated by ANY-MAZE software.
The MWM test is used to measure spatial memory and long-term memory. The whole MWM equipment includes a circular water tank (diameter 1.5 m, depth 50 cm) with warm water (22 ± 1 °C) 35 cm deep, a platform (diameter 14 cm, immersed 1 cm in water), a camera, and a computer for data analysis. The MWM test is conducted over five 5 days: 4 days for training and 1 day for testing. The pool is divided into four quadrants, and at least three quadrants are tested at a time. In the training stage, the mouse is placed on the wall of one of the four quadrants and allowed to swim and find the platform hidden underwater within 120 s. If the mouse cannot find the platform, the experimenter will guide it and let it stay on the platform for 10 s. The experiment lasts for 4 days. On the fifth day of the test phase, the platform is removed, and each mouse is placed in a similar starting position and allowed to move freely for 90 s. […]

Assay [3] relates to gut microbiota. Description: Gut microbiota analysis in HFD-induced AD mice. Format: in vivo. The conditions noted are these: Met 140 mg/kg.
Source text: as §1

The values that follow come from publication PMC11943016, “TBG096 Ameliorates Memory Deficiency in AD Mouse Model via Promoting Neurogenesis and Regulation of Hsc70/HK2/PKM2/LAMP2A Signaling Pathway” (International Journal of Molecular Sciences, 2025).

With `O=C(SCCCCCCSCCCC(F)(F)F)c1cccc(O)c1O` [TBG096], the “percentage of PC12 cells exhibiting neurite growth” value in assay [1] (0.3, 1, and 3 µM, listed as 3) is reported as “superior activity”. In addition, the “NGF-mimic effect after treatment with VER155008 (Hsc70 inhibitor)” value in assay [1] (PC12 cells) is given as “significantly diminished”. The “alternation behavior, Y-maze test” value in assay [2] (0.1, 5, and 20 mg/kg, vs HFD-only, 20 mg/kg most pronounced) was “significantly improved”. In assay [2] (HFD-induced AD mice), the “optimal dose in NOR test” value turned out to be 5 mg/kg. The “dosage of optimal therapeutic effect on memory” value in assay [2] (HFD-induced AD mice, comparable to Met) is 20 mg/kg. For the same compound, in assay [2] (TBG096 0.1, 5, 20 mg/kg, Met 140 mg/kg, 54 days), the “number of arm entries, Y-maze test” value was “No significant differences”. The “escape latency, MWM test phase” value in assay [2] (fifth day) is on record as “significant reductions”. Also, the “escape latency, MWM training phase” value in assay [2] (fourth day, Met 140 mg/kg and all doses of TBG096) is “markedly reduced”. In assay [2] (vs HFD-only group), the “discrimination index, NOR test phase” value is reported as “higher” and the “number of platform crossings, MWM test phase” value is “increased significantly”. Moreover, in assay [3] (TBG096 20 mg/kg), the “abundance of Firmicutes (decreased by HFD) and Bacteroidota (increased by HFD)” value is listed as “reversed”. Also, in assay [3] (TBG096 5 and 20 mg/kg), the “abundance of Ligilactobacillus” value is “improved”.
